Experimental data from patent US20240174680A1, “CDK2 INHIBITORS AND METHODS OF USING THE SAME” (Cedilla Therapeutics, Inc., priority 2021, published 2024).

Legend:
[1] = tested on: Kuramochi cells labeled with mApple-H2B; experiment: IncuCyte cell proliferation assay; assay type: cell-based; details: 72 hours
Experimental: IncuCyte® assay was used to measure the effect of disclosed compounds on cell proliferation. Fluorescent microscopy images of cells were taken immediately after compound treatment and 72 hours later. Image analysis software was used to obtain cell counts as a function of compound concentration. Kuramochi cells labeled with mApple-H2B were seeded on 384-well assay-ready plates. Plates were placed in an IncuCyte® (Sartorius) and scanned at 0 and 72 hours. IncuCyte® software was used to count the number of fluorescent nuclei in each well. The fold change in cell count from 0 to 72 hours in wells treated with increasing compounds concentrations (10 pts, 1/2 log dilution, 20 μM top concentration) was normalized to DMSO control wells. The normalized cell counts were fit with dose response curves and a […] was calculated.
Compounds with an ICp greater than 0.5 μM and less than or equal to 5.0 μM are designated as “B”.

[2] = tested on: Kuramochi cells; experiment: BrdU cell proliferation assay (colorimetric ELISA); assay type: cell-based; details: read-out: BrdU - KURAMOCHI.1: IC50
Experimental: A BrdU assay was used as a measure of proliferation based on the DNA replication process of proliferating cells. BrdU, a pyrimidine analog, is added to the cell culture and incorporated into the DNA of proliferating cells. The presence of the BrdU analog was then measured through a colorimetric ELISA. After fixation and permeabilization of cells, peroxidase-conjugated antibody recognizing BrdU is added and allowed to incubate, followed by thorough washing to remove unbound antibody. In order to quantify the amount of bound antibody, peroxidase substrate is added and produces a color that can be measured at 450 nm.
On day −1, Kuramochi cells (Sekisui XenoTech JCRB0098) were seeded at 2,000 cells/well in columns 2-12 of a 96 well plate (Corning, CLS3596) in 150 μL media and allowed to adhere overnight at 37 degree with 5% CO2.
On day 0, the source plate was prepared by adding 10 mM compounds and performing 3-fold serial dilutions for a 10-point dose response of each compound. Using a multichannel pipette, 2 μL of the contents of the source plate were stamped into an intermediate plate with 500 μL of RPMI 1640 Media, GlutaMAX Supplement (Life Technologies, 61870127) in each well of a Nunc 96 DeepWell™ plate, non-treated 96 DeepWell plate, 2 mL/well, sterile, natural, 60/cs (Sigma Z717274) and mixed thoroughly. 50 μL from each well of this intermediate plate were added to 4 wells of a 96-well plate with previously seeded Kuramochi cells.
On day 4, the plates were developed using the BrdU ELISA Cell Proliferation Assay according to manufacturer's instructions (Roche, 11647229001). Briefly, BrdU was diluted 1:100 in Gibco®, OptiMEM® and 20 μL/well was added, shaken for 10 minutes at 350 rpm, and then returned to the incubator for 1 hour. Following incubation, the medium was discarded, and the cells were fixed by adding 200 μL of Fix/Denature solution. The anti-BrdU peroxidase antibody was diluted 1:1000 in OptiMEM, added at 100 μL/well, and incubated while shaking (350 rpm) for one hour. Three washes with PBS were performed to remove any unbound antibody, followed by the addition of 100 μL of substrate solution to each well. 25 μL/well of 1M sulfuric acid solution was then added to halt the reaction, and plates were read out using an Envision spectrophotometer (Perkin Elmer) set to read 450 nm absorbance. Background absorbance values from empty wells were subtracted from all samples and then normalized to DMSO treated wells.

[3] = biological target: CDK2/Cyclin E1 (Homo sapiens, UniProt P24941); experiment: CDK2/Cyclin E1 Caliper LabChip EZ Reader mobility shift assay; assay type: biochemical; parameters: purchased Eurofins 14-475; details: read-out: Caliper Assay (CDK2/CCNE1): IC50
How it was run: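 Mobility-shift kinase assay: compound titrations preincubated 30 min with enzyme and ATP, reaction started with 5-FAM-QSPKKG-CONH2 peptide. Final 2.5 nM CDK2/Cyclin E1, 100 μM ATP, 1.5 μM peptide, HEPES pH 7.5; stopped with EDTA after 100 min. IC50 from four-parameter fit of normalized conversion ratio.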

SMILES	IC50 [1] [µM]	IC50 [2] [µM]	IC50 [3] [µM]
C[C@@H](OCC1CCC(F)(F)CC1)[C@H](NC(=O)C1CN(C(=O)c2cnn(Cc3ccc(F)cc3)c2)CC12CN(C(=O)C1(C(F)(F)F)CC1)C2)C(=O)N1CCC(F)(F)CC1 (single isomer, unassigned) [I-190B]	5 to 20	0.5 to 5	
C[C@@H](OCc1ccccc1)[C@H](NC(=O)C1CN(C(=O)c2cnn(Cc3ccccc3)c2)CC12CN(C(=O)C1CC1(C)C)C2)C(=O)NCCCCCNC(=O)OC(C)(C)C (some centres unmarked) [I-52]	0.5 to 5	0.5 to 5	
COCC1CCCN(C(=O)[C@@H](NC(=O)[C@H]2CN(C(=O)c3cnn(Cc4ccccc4)c3)CC23CN(C(=O)[C@H]2CC2(C)C)C3)[C@@H](C)OCC2CCCCC2)C1 (some centres unmarked) [I-111]	0.5 to 5	≤ 0.5	
C[C@@H](OCC1CCC(F)(F)CC1)[C@H](NC(=O)[C@@H]1CN(C(=O)c2cnn(Cc3ccc(F)cc3)c2)CC12CN(C(=O)C1(C(F)(F)F)CC1)C2)C(=O)N1CCC(F)(F)CC1 [I-190A]	≤ 0.5		0.01 to 0.1
CC(C)O[C@H]1C[C@@H](NC(=O)[C@@H]2CN(C(=O)c3cnn(Cc4ccccc4)c3)CC23CN(C(=O)[C@H]2CC2(C)C)C3)C1 [I-234]		> 10	> 10
CNC(=O)[C@@H](NC(=O)[C@@H]1CN(C(=O)c2cncs2)CC12CN(CC1CCOCC1)C2)[C@@H](C)OCC12CCC(CC1)OC2 [I-346]	> 20	> 10	> 10
CNC(=O)[C@@H](NC(=O)[C@@H]1CN(C(=O)c2cncs2)CC12CN(C(=O)[C@H]1CC1(C)C)C2)c1nnc(C2CCCCC2)o1 [I-429]	> 20	> 10	
C[C@@H](OCC1CCOCC1)[C@@H](COC(F)F)NC(=O)[C@@H]1CN(C(=O)c2cncs2)CC12CN(C(=O)[C@H]1CC1(C)C)C2 [I-441]	> 20		
C[C@@H](OCC1CCOCC1)[C@H](NC(=O)[C@@H]1CN(C(=O)c2cncs2)CC12CN(C(=O)[C@H]1CC1(C)C)C2)C(=O)N1CCC(c2ccncc2)CC1 [I-442]	5 to 20		
